# Measurements taken from ChEMBL document CHEMBL5385871, “Application and synthesis of thiazole ring in clinically approved drugs” (Eur J Med Chem, 2023).
# pEC50, pIC50, pKi: −log10 of the molar value. Where a name gives a salt, the structure may show the parent alone.
# How the values were obtained:
# Escherichia coli = experiment: Antibacterial activity against Escherichia coli assessed as bacterial growth inhibition; assay type: functional
# Streptococcus pneumoniae = experiment: Antibacterial activity against Streptococcus pneumoniae assessed as bacterial growth inhibition; assay type: functional
# Pseudomonas aeruginosa = experiment: Antibacterial activity against Pseudomonas aeruginosa assessed as bacterial growth inhibition; assay type: functional
# [1] = Terminal half life in fasted cynomolgus monkey at 3 mg/kg, po measured for 24 hrs by LC-MS/MS analysis; assay type: ADME, organism-based, Macaca fascicularis; conditions: in vivo, read-out: beta t1/2 (converted)
# [2] = Terminal half life in fasted Sprague-Dawley rat at 3 mg/kg, po measured for 24 hrs by LC-MS/MS analysis; assay type: ADME, organism-based; conditions: in vivo, read-out: beta t1/2 (converted)
# Acetylcholinesterase = Acetylcholinesterase (Homo sapiens, UniProt P22303)
# Chain of Acetylcholinesterase (P22303 whole entry): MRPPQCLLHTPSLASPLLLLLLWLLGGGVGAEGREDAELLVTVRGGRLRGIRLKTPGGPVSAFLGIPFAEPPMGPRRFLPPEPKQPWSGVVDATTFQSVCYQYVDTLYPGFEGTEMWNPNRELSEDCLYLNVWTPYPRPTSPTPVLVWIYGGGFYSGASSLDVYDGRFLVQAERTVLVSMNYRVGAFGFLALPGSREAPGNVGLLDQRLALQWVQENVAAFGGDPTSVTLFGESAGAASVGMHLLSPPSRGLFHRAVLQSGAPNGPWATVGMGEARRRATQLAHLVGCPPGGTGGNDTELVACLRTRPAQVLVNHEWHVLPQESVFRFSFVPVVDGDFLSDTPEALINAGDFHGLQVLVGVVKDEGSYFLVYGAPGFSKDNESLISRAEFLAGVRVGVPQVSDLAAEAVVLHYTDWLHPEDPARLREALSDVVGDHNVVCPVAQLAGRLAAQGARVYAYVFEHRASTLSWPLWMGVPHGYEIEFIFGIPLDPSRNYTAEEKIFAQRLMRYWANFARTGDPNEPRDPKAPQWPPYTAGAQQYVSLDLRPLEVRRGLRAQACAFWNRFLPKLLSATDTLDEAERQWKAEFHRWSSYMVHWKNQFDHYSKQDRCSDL
# Description: Inhibition of AChE (unknown origin)
# Streptococcus pyogenes = experiment: Antibacterial activity against Streptococcus pyogenes assessed as bacterial growth inhibition; assay type: functional
# Haemophilus influenzae = experiment: Antibacterial activity against Haemophilus influenzae assessed as bacterial growth inhibition; assay type: functional
# [3] = Inhibition of PI3Kalpha H1047R mutant (unknown origin); parameters: species or system Homo sapiens
# [4] = target: T1, Beta-1 adrenergic receptor (Homo sapiens, UniProt P08588); experiment: Inhibition of beta-1 adrenoceptor (unknown origin)
# T1 sequence (P08588 whole entry): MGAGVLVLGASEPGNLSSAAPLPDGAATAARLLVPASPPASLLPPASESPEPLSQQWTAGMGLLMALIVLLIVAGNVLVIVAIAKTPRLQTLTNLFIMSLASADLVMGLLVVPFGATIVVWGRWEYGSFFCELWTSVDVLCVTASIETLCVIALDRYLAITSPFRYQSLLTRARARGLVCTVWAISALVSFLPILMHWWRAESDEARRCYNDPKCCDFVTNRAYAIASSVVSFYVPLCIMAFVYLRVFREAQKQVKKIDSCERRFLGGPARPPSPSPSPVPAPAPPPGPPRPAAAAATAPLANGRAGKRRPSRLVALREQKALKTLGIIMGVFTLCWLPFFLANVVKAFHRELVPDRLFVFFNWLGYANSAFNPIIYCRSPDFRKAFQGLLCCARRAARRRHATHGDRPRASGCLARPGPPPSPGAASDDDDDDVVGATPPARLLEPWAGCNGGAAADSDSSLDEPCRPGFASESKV
# [5] = target: T2, Beta-2 adrenergic receptor (Homo sapiens, UniProt P07550); experiment: Inhibition of beta-2 adrenoceptor (unknown origin)
# T2 sequence (P07550 whole entry): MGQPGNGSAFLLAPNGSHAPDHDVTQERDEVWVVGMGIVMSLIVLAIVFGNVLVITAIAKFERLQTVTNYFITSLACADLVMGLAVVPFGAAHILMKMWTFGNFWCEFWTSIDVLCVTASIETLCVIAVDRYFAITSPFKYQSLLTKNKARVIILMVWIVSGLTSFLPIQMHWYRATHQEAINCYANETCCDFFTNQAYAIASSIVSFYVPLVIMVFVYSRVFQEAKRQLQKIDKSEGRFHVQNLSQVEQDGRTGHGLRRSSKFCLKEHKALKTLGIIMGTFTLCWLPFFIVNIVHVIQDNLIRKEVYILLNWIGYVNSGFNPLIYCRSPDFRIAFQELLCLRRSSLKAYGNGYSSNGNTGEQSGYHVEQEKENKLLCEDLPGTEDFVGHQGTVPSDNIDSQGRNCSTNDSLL
# BaF3 = experiment: Induction of cell proliferation of mouse BaF3 cells expressing full-length human TPO receptor by WST-1/1-methoxy PMS assay; assay type: functional, cell-based
# [6] = Induction of colony formation of human megakaryocyte from human cord blood CD34-positive cells measured after 10 to 12 days; assay type: functional, cell-based
# [7] = tested on: Staphylococcus epidermidis; experiment: Antibacterial activity against Staphylococcus epidermidis assessed as bacterial growth inhibition; assay type: functional
# Staphylococcus aureus = experiment: Antibacterial activity against Staphylococcus aureus assessed as bacterial growth inhibition; assay type: functional
# Bacteria = experiment: Antibacterial activity against aerobic gram-negative bacteria assessed as bacterial growth inhibition; assay type: functional
# Enterobacteriaceae = experiment: Antibacterial activity against Enterobacteriaceae assessed as bacterial growth inhibition; assay type: functional
# [8] = Antibacterial activity against non-fermentative bacteria assessed as bacterial growth inhibition
# Proteus mirabilis = experiment: Antibacterial activity against Proteus mirabilis assessed as bacterial growth inhibition; assay type: functional
# Clostridioides difficile = experiment: Antibacterial activity against Clostridium difficile assessed as bacterial growth inhibition; assay type: functional
# Bacteroides fragilis = experiment: Antibacterial activity against Bacteroides fragilis assessed as bacterial growth inhibition; assay type: functional
# Neisseria gonorrhoeae = experiment: Antibacterial activity against Neisseria gonorrhoeae assessed as bacterial growth inhibition; assay type: functional
# Moraxella catarrhalis = experiment: Antibacterial activity against Moraxella catarrhalis assessed as bacterial growth inhibition; assay type: functional
# [9] = Oral bioavailability in fasted Sprague-Dawley rat at 10 mg/kg administered via gavage measured for 10 hrs by LC/MS/MS analysis; assay type: ADME, organism-based; conditions: in vivo
# WiDr = experiment: cells; conditions: Homo sapiens, 72 h
# Description: Antiproliferative activity against human WiDr cells incubated for 72 hrs by MTT assay
# K562 = experiment: cells; conditions: Homo sapiens, K562, 72 h
# Description: Antiproliferative activity against human K562 cells incubated for 72 hrs by MTT assay
# in vivo [10] = conditions: Sprague-Dawley, rat, iv, 10 mg/kg
# Description: Half life in fasted Sprague-Dawley rat at 10 mg/kg, iv measured for 10 hrs by LC/MS/MS analysis
# in vivo [11] = conditions: Sprague-Dawley, rat, po, 10 mg/kg
# Description: Half life in fasted Sprague-Dawley rat at 10 mg/kg, po administered via gavage measured for 10 hrs by LC/MS/MS analysis
# [12] = target: Beta-3 adrenergic receptor (Homo sapiens, UniProt P13945); experiment: Agonist activity at human beta-3 adrenoceptor expressed in CHO cells assessed as cAMP accumulation incubated for 10 mins by radioimmunoassay; assay type: functional, cell-based
# Chain of Beta-3 adrenergic receptor (P13945 whole entry): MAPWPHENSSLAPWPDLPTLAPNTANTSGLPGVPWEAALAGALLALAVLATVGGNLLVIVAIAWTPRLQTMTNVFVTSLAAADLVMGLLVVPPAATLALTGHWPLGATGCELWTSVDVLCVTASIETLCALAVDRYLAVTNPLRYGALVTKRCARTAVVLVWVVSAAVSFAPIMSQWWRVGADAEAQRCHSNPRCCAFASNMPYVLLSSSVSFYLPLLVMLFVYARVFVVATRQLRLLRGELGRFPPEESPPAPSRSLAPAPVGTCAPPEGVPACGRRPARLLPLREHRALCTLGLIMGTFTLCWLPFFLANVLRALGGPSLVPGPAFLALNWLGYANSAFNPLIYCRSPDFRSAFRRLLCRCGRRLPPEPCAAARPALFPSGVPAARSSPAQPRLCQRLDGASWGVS
# [13] = target: T1, Beta-1 adrenergic receptor; experiment: Agonist activity at human beta-1 adrenoceptor expressed in CHO cells assessed as cAMP accumulation incubated for 10 mins by radioimmunoassay; assay type: functional, cell-based
# [14] = target: T2, Beta-2 adrenergic receptor; experiment: Agonist activity at human beta-2 adrenoceptor expressed in CHO cells assessed as cAMP accumulation incubated for 10 mins by radioimmunoassay; assay type: functional, cell-based
# Urinary bladder = experiment: Ex vivo relaxant activity against CCh-induced contraction in rat urinary bladder smooth muscle strips relative to control; assay type: functional
# [15] = Inhibition of proliferation in Giardia lamblia trophozoites; assay type: functional, Giardia duodenalis
# D(3) dopamine receptor = D(3) dopamine receptor (Homo sapiens, UniProt P35462)
# Chain of D(3) dopamine receptor (P35462 whole entry): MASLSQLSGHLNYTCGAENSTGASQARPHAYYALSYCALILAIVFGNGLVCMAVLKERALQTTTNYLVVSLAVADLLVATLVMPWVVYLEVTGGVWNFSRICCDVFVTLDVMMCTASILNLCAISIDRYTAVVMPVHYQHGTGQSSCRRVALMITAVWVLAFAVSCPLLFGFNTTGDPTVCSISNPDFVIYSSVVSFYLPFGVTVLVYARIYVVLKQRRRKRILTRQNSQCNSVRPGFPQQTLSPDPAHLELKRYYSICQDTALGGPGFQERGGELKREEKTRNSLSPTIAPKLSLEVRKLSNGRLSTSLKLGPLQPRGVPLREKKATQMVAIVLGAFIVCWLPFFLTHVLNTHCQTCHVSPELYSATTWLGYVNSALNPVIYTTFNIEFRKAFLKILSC
# Description: Binding affinity to human D3 receptor assessed as inhibition constant
# [16] = Inhibition of P-gp-mediated extrusion of [14C]saquinavir in porcine BCEC cells measured after 5 mins by scintillation counting method; assay type: cell-based, Sus scrofa; conditions: brain capillary endothelial cell
smiles,measurement,setting,value
CO/N=C(\C(=O)N[C@@H]1C(=O)N2C(C(=O)[O-])=C(C[N+]3(C)CCCC3)CS[C@H]12)c1csc(N)n1,MIC,Escherichia coli,≤ 0.007 µg/mL
same,MIC,Streptococcus pneumoniae,0.007 µg/mL
same,MIC,Pseudomonas aeruginosa,> 0.06 µg/mL
COc1ccc2c(O[C@@H]3C[C@H]4C(=O)N[C@]5(C(=O)NS(=O)(=O)C6CC6)C[C@H]5/C=C\CCCCN(C)C(=O)[C@@H]4C3)cc(-c3nc(C(C)C)cs3)nc2c1C,half-life,[1],4.1 h
same,half-life,[2],1.5 h
COc1cc(O)c(C(=O)Nc2nc(C(=O)NCCN(C(C)C)C(C)C)cs2)cc1OC,pIC50,Acetylcholinesterase,5.75
C=CC1=C(C(=O)O)N2C(=O)[C@@H](NC(=O)/C(=N\O)c3csc(N)n3)[C@H]2SC1,MIC,Streptococcus pyogenes,≤ 0.004 µg/mL
same,MIC,Haemophilus influenzae,0.05 µg/mL
same,MIC,Streptococcus pneumoniae,0.006 µg/mL
Cc1nc(NC(=O)N2CCC[C@H]2C(N)=O)sc1-c1ccnc(C(C)(C)C(F)(F)F)c1 [ALPELISIB],pIC50,[3],~8.40
CC(C)(C)NCC(O)CSc1nc(-c2ccc(C(N)=O)s2)cs1 (centres undefined) [AROTINOLOL],pKi,[4],9.74
same,pKi,[5],9.26
O=C(Nc1nc(-c2cc(Cl)cs2)c(N2CCN(C3CCCCC3)CC2)s1)c1cnc(N2CCC(C(=O)O)CC2)c(Cl)c1 [AVATROMBOPAG],pEC50,BaF3,8.48
same,pEC50,[6],7.60
C[C@H]1[C@H](NC(=O)/C(=N\OC(C)(C)C(=O)O)c2csc(N)n2)C(=O)N1S(=O)(=O)O [AZTREONAM],MIC,[7],8 µg/mL
same,MIC,Staphylococcus aureus,≥ 8 µg/mL
same,MIC,Streptococcus pyogenes,≥ 8 µg/mL
CC(C)(O/N=C(\C(=O)N[C@@H]1C(=O)N2C(C(=O)[O-])=C(C[N+]3(CCNC(=O)c4ccc(O)c(O)c4Cl)CCCC3)CS[C@H]12)c1csc(N)n1)C(=O)O [CEFIDEROCOL],MIC,Bacteria,< 2 µg/mL
same,MIC,Enterobacteriaceae,< 2 µg/mL
same,MIC,[8],< 2 µg/mL
C=CC1=C(C(=O)O)N2C(=O)[C@@H](NC(=O)/C(=N\OCC(=O)O)c3csc(N)n3)[C@H]2SC1 [CEFIXIME],MIC,Haemophilus influenzae,0.004 µg/mL
same,MIC,Escherichia coli,0.015 µg/mL
same,MIC,Proteus mirabilis,≤ 0.008 µg/mL
CN(C)CCn1nnnc1SCC1=C(C(=O)O)N2C(=O)[C@@H](NC(=O)Cc3csc(N)n3)[C@H]2SC1 [CEFOTIAM],MIC,Staphylococcus aureus,0.25 µg/mL
same,MIC,Clostridioides difficile,> 128 µg/mL
same,MIC,Bacteroides fragilis,≥ 16 µg/mL
COCC1=C(C(=O)O)N2C(=O)[C@@H](NC(=O)/C(=N\OC)c3csc(N)n3)[C@H]2SC1 [CEFPODOXIME],MIC,Streptococcus pyogenes,≤ 0.004 µg/mL
same,MIC,Haemophilus influenzae,≤ 0.03 µg/mL
same,MIC,Neisseria gonorrhoeae,0.004 µg/mL
Nc1nc(/C(=C/CC(=O)O)C(=O)N[C@@H]2C(=O)N3C(C(=O)O)=CCS[C@H]23)cs1 [CEFTIBUTEN],MIC,Haemophilus influenzae,0.015 µg/mL
same,MIC,Moraxella catarrhalis,0.5 µg/mL
same,MIC,Streptococcus pneumoniae,0.5 µg/mL
Cc1nc(Nc2ncc(C(=O)Nc3c(C)cccc3Cl)s2)cc(N2CCN(CCO)CC2)n1.O [DASATINIB],bioavailability,[9],27%
same,pIC50,WiDr,> 9.00
same,pIC50,K562,7.28
same,half-life at 10 h,in vivo [10],3.3 h
same,half-life at 10 h,in vivo [11],3.1 h
Nc1nc(CC(=O)Nc2ccc(CCNC[C@H](O)c3ccccc3)cc2)cs1 [MIRABEGRON],pEC50,[12],7.65
same,pEC50,[13],≤ 5.00
same,pEC50,[14],≤ 5.00
same,Emax,Urinary bladder,94%
CC(=O)Oc1ccccc1C(=O)Nc1ncc([N+](=O)[O-])s1 [NITAZOXANIDE],pIC50,[15],5.62
CCCN[C@H]1CCc2nc(N)sc2C1 [PRAMIPEXOLE DIHYDROCHLORIDE],pKi,D(3) dopamine receptor,9.30
CC(C)c1nc(CN(C)C(=O)N[C@H](C(=O)N[C@@H](Cc2ccccc2)C[C@H](O)[C@H](Cc2ccccc2)NC(=O)OCc2cncs2)C(C)C)cs1 [RITONAVIR],pIC50,[16],6.70
